Patent publication EP2616456B1, “NUCLEAR EXPORT INHIBITORS” (Universitätsmedizin der Johannes Gutenberg-Universität Mainz, priority 2010, dated 2012)
“Also recorded” adds a separate entry of the source.

What was measured:
RevNES-biosensor [1] = test: RevNES-biosensor translocation (NES-mediated nuclear export) in living HeLa cells, fluorescence microscopy; format: cell-based; details: for Cellular localization of green fluorescent RevNES-biosensor: HeLa; for Topt at 25µM: Table 4, fluorescence microscopy; for Mode of Inhibition: reversal of export inhibition after 24h, C5: 5-12h observation
Experimental: (§1) The activity of compounds C3, C5 and C24 to inhibit NES-mediated nuclear export in living cells was analyzed as described in Fetz et al., 2009 using living HeLa (cervix carcinoma), FaDu (head and neck cancer), MDA-MB231 (mammacarcinoma) and SW480 cells (colon cancer) which transiently expressed the RevNES-biosensor. The RevNES-biosensor is a fusion protein composed of (from N to C terminus) the SV40 large T-antigen nuclear localization signal (NLS), glutathion-S-transferase (GST), green fluorescent protein (GFP) and the nuclear export signal (NES) of the HIV-1 (human immunodeficiency virus) Rev protein (RevNES).
The cells of the control were treated with a corresponding amount of DMSO only. The cellular localization of RevNES-biosensor was monitored by fluorescence microscopy. […] Maximum of cellular accumulation was observed after 1h (C24), after 2h (C3) and after 5h (C5), respectively. […] Thus, the inhibitory activity of C3 and C24 (reversible) but not of C5 (irreversible) was reversed after 24h. Table 1: Cellular localization of green fluorescent RevNES-biosensor
Table 3: Cellular localization of green fluorescent RevNES-biosensor
(§2) IC50 value corresponds to compound concentration reducing HeLa cell viability by 50%. Topt is the time point post treatment when maximum nuclear export inhibition was observed by fluorescence microscopy. Table 4: Functional characteristics of nuclear export inhibitors

RevNES-biosensor [2] = test: RevNES-biosensor translocation in living FaDu, MDA-MB231 and SW480 cells, fluorescence microscopy; format: cell-based; details: at Topt
Experimental: as §1
Maximum nuclear localization of fluorescence was observed after 2h (C3) and 5h (C5), respectively. Table 2: Cellular localization of green fluorescent RevNES-biosensor

Survivin = test: Nuclear export of Survivin-GFP fusion transiently expressed in HeLa cells; format: cell-based; details: transient expression, 25µM
Experimental: The activity of compounds to inhibit the export of the oncologically relevant protein Survivin as well as of the HIV-1 Rev protein was analyzed.
Nuclear export of Survivin is crucial for its tumor promoting cytoprotective activity (Engels et al., 2007; Knauer et al., 2007a; Knauer et al., 2007b).

HIV-1 Rev protein = test: Nuclear export of HIV-1 Rev-GFP in actinomycin D treated HeLa cells; format: cell-based; details: 25µM
Excerpt: The HIV-1 Rev protein transports unspliced and incompletely spliced viral RNAs from the nucleus into the cytoplasm (Stauber et al., 1995). As such, Rev's export function is crucial for viral replication and AIDS development (Pavlakis and Stauber, 1998; Stauber et al., 1995).

HeLa cells = test: Cell viability (CellTiter-Glo) and cell death, HeLa; format: cell-based; details: for cell death induced by treatment: HeLa (cervix carcinoma), 25µM; for viability compared to the control: HeLa, 100µM, 72h, CellTiter-Glo; for IC50: Homo sapiens, compound concentration reducing HeLa cell viability by 50%
Experimental: (§3) To test the anti-cancer activity of the compounds, several cancer cell lines, currently used as models for different epithelial cancers and leukemias, were treated with the indicated inhibitors. […] Every 24h, the cell culture medium was replaced by fresh compound-containing medium. 72h post treatment, cell were analyzed by adding 100µl CellTiter-Glo® assay reagent (Promega). Luminescence was measured with a LuminoskanAscent device (ThermoScientific). Cells treated with a corresponding amount of DMSO only were use as a control. The luminescence (equals cell viability) of said control was set to 100%.
as §2
It was assessed whether the export inhibitors also affect the viability of non-malignant human cells, precluding their potential (pre)clinical use. 10^3 freshly isolated non-malignant primary human fibroblasts (HTF-8) or HeLa cells/well were seeded and 24h later treated with the indicated compounds (final concentration: 100µM). Every 24h cell culture medium was replaced by freshly prepared compound-containing medium. 72h post treatment the cells were analyzed by adding 100µl CellTiter-Glo® assay reagent, and luminescence measured with a LuminoskanAscent (ThermoScientific). Cells treated with DMSO only were used as a control. The fluorescence measured (equals cell viability) with said control was set to 100%.

RKO = test: Cell viability (CellTiter-Glo) and cell death, RKO; format: cell-based; details: for cell death induced by treatment: RKO (colon cancer), 25µM; for viability compared to the control: RKO, 100µM, 72h, CellTiter-Glo
Experimental: as §3

FaDu = test: Cell viability (CellTiter-Glo) and cell death, FaDu; format: cell-based; details: for cell death induced by treatment: FaDu (head and neck cancer), 25µM; for viability compared to the control: FaDu, 100µM, 72h, CellTiter-Glo
Experimental: as §3

LS174T = test: Cell viability (CellTiter-Glo) and cell death, LS174T; format: cell-based; details: for cell death induced by treatment: LS174T (colon adenocarcinoma), 25µM; for viability compared to the control: LS174T, 100µM, 72h, CellTiter-Glo
Experimental: as §3

K562 (Bcr-Abl^+) = test: Cell death, K562; format: cell-based; details: K562 (Bcr-Abl^+) (chronic myeloid leukemia, CML), 25µM
SUP-B15 = test: Cell death, SUP-B15; format: cell-based; details: SUP-B15 (B cell precursor ALL), 25µM
KASUMI-1 = test: Cell death, KASUMI-1; format: cell-based; details: KASUMI-1 (acute myeloid leukemia, AML), 25µM
K562 = test: AlamarBlue viability assay, K562, alone and combined with imatinib; format: cell-based, human; details: K562, 25µM, 72h, single agent
Experimental: The BCR-ABL^+ human chronic myeloid leukemia (CML) cell line K562 was used to investigate whether combining export inhibitors with chemotherapeutic drugs currently used in the clinics enhances drug-induced cancer cell death.
72h post treatment, cells were analyzed by adding 10µl of AlamarBlue® (Invitrogen). Fluorescence (538/600nm) was measured with a LuminoskanAscent (ThermoScientific). Cells treated with DMSO only were used as a control. The fluorescence measured (equals cell viability) with said control was set to 100%.

[3] = In vivo toxicity in nude mice; details: male NMRI nu/nu mice, i.p. three times every second day, 200µl 1mM
Experimental: To investigate whether the nuclear export inhibitors cause toxic effects in vivo, six-week-old male NMRI nu/nu mice were injected three times intraperitoneally (i.p.) every second day with 200µl 1mM C3 or C5 (5 mice each), or with 200µl DMSO only (control, 2 mice).

[4] = test system: HIV-1 (strain NL4-3; CXCR-4 tropic); test: HIV-1 replication inhibition assay in infected Tzm-bl cells (RT activity in supernatant); format: cell-based; details: 25 or 50µM added 24h post infection, read 48h post infection
Experimental: The HIV-1 Rev protein transports unspliced and inclompletely spliced viral RNAs from the nucleus into the cytoplasm, crucial for viral replication and AIDS development (Pavlakis and Stauber, 1998; Stauber et al., 1995). […] 24h post infection, DMSO only (control) or compounds C3 or C5 (stock solution in DMSO) were added to a final concentration of 25 or 50µM. 24h later (= 48h post infection) the viral particles in the supernatant were quantified by measuring reverse transcriptase (RT) activity in the viral supernatant using the RT-Lenti Kit (Cavidi-Tech; Uppsala, Sweden) (see Fig. 6A).

NC(=O)c1c(NC(NC(=O)c2ccccc2F)(C(F)(F)F)C(F)(F)F)sc2c1CCCC2 [Compound C3, 2-[[1,1,1,3,3,3-hexafluoro-2-[(2-fluorobenzoyl)amino]propan-2-yl]amino]-4,5,6,7-tetrahydro-1-benzothiophene-3-carboxamide]
Cellular localization of green fluorescent RevNES-biosensor (RevNES-biosensor [1]; 25µM, T = 0h): cytoplasm | Cellular localization of green fluorescent RevNES-biosensor (RevNES-biosensor [1]; 25µM, T = 1h): nucleus/cytoplasm | Cellular localization of green fluorescent RevNES-biosensor (RevNES-biosensor [1]; 25µM, T = 24h): predominantly localized in the cytoplasm | Cellular localization of green fluorescent RevNES-biosensor (RevNES-biosensor [1]; 25µM, at Topt): nuclear accumulation; also recorded: nucleus | Cellular localization of green fluorescent RevNES-biosensor (RevNES-biosensor [1]; 75µM, T = 0h): cytoplasm | Cellular localization of green fluorescent RevNES-biosensor (RevNES-biosensor [1]; 75µM, T = 1h): nucleus | Cellular localization of green fluorescent RevNES-biosensor (RevNES-biosensor [1]; 150µM, T = 0h): cytoplasm | Cellular localization of green fluorescent RevNES-biosensor (RevNES-biosensor [1]; 150µM, T = 1h): nucleus | Topt at 25µM (RevNES-biosensor [1]; 25µM): ∼1h | Mode of Inhibition (RevNES-biosensor [1]): reversible | Cellular localization of green fluorescent RevNES-biosensor (RevNES-biosensor [2]; FaDu, 25µM): nuclear accumulation; also recorded: nucleus | Cellular localization of green fluorescent RevNES-biosensor (RevNES-biosensor [2]; MDA-MB231, 25µM): nuclear accumulation; also recorded: nucleus | Cellular localization of green fluorescent RevNES-biosensor (RevNES-biosensor [2]; SW480, 25µM): nuclear accumulation; also recorded: nucleus | Localization of Survivin-GFP fusion (nuclear export of Survivin) (Survivin): inhibited; also recorded: accumulated in the nucleus | Localization of HIV-1 Rev-GFP (nuclear export of HIV-1 Rev protein) (HIV-1 Rev protein): inhibited; also recorded: restored the nuclear accumulation | cell death induced by treatment (HeLa cells): cell death | viability compared to the control (HeLa cells): significantly reduced viability; also recorded: significantly affect the viability | IC50 (HeLa cells): 38 µM | cell death induced by treatment (RKO): cell death | viability compared to the control (RKO): significantly reduced viability | cell death induced by treatment (FaDu): cell death | viability compared to the control (FaDu): significantly reduced viability | cell death induced by treatment (LS174T): cell death | viability compared to the control (LS174T): significantly reduced viability | cell death induced by treatment (K562 (Bcr-Abl^+)): cell death | cell death induced by treatment (SUP-B15): cell death | cell death induced by treatment (KASUMI-1): cell death | cancer cell death (AlamarBlue viability) (K562): caused cancer cell death | other signs of in vivo toxicity [3]: no significant weight loss (see Figure 5) or other signs of in vivo toxicity were observed | weight loss compared to the DMSO control [3]: no significant weight loss | RT-activity in the viral supernatant compared to the control [4]: significantly reduced the RT-activity

O=C(NC1CS(=O)(=O)CC1Cl)c1cccc(C(F)(F)F)c1 (centres unmarked) [Compound C5, N-(4-chloro-1,1-dioxothiolan-3-yl)-3-(trifluoromethyl)benzamide]
Cellular localization of green fluorescent RevNES-biosensor (RevNES-biosensor [1]; 25µM, T = 0h): cytoplasm | Cellular localization of green fluorescent RevNES-biosensor (RevNES-biosensor [1]; 25µM, T = 3h): nucleus/cytoplasm | Cellular localization of green fluorescent RevNES-biosensor (RevNES-biosensor [1]; 25µM, T = 24h): nuclear fluorescence; also recorded: nucleus | Cellular localization of green fluorescent RevNES-biosensor (RevNES-biosensor [1]; 25µM, at Topt): nuclear accumulation; also recorded: nucleus | Cellular localization of green fluorescent RevNES-biosensor (RevNES-biosensor [1]; 75µM, T = 0h): cytoplasm | Cellular localization of green fluorescent RevNES-biosensor (RevNES-biosensor [1]; 75µM, T = 3h): nucleus | Cellular localization of green fluorescent RevNES-biosensor (RevNES-biosensor [1]; 150µM, T = 0h): cytoplasm | Cellular localization of green fluorescent RevNES-biosensor (RevNES-biosensor [1]; 150µM, T = 3h): nucleus | Topt at 25µM (RevNES-biosensor [1]; 25µM): 5 to 6 h | Mode of Inhibition (RevNES-biosensor [1]): irreversible; also recorded: irreversible* | Cellular localization of green fluorescent RevNES-biosensor (RevNES-biosensor [2]; FaDu, 25µM): nuclear accumulation; also recorded: nucleus | Cellular localization of green fluorescent RevNES-biosensor (RevNES-biosensor [2]; MDA-MB231, 25µM): nuclear accumulation; also recorded: nucleus | Cellular localization of green fluorescent RevNES-biosensor (RevNES-biosensor [2]; SW480, 25µM): nuclear accumulation; also recorded: nucleus | Localization of Survivin-GFP fusion (nuclear export of Survivin) (Survivin): inhibited; also recorded: accumulated in the nucleus | Localization of HIV-1 Rev-GFP (nuclear export of HIV-1 Rev protein) (HIV-1 Rev protein): inhibited; also recorded: restored the nuclear accumulation | cell death induced by treatment (HeLa cells): cell death | viability compared to the control (HeLa cells): significantly reduced viability; also recorded: significantly affect the viability | IC50 (HeLa cells): 17 µM | cell death induced by treatment (RKO): cell death | viability compared to the control (RKO): significantly reduced viability | cell death induced by treatment (FaDu): cell death | viability compared to the control (FaDu): significantly reduced viability | cell death induced by treatment (LS174T): cell death | viability compared to the control (LS174T): significantly reduced viability | cell death induced by treatment (K562 (Bcr-Abl^+)): cell death | cell death induced by treatment (SUP-B15): cell death | cell death induced by treatment (KASUMI-1): cell death | cancer cell death (AlamarBlue viability) (K562): caused cancer cell death | other signs of in vivo toxicity [3]: no significant weight loss (see Figure 5) or other signs of in vivo toxicity were observed | weight loss compared to the DMSO control [3]: no significant weight loss | RT-activity in the viral supernatant compared to the control [4]: significantly reduced the RT-activity
